One block for each compound: values may come before it.
Assays:
Myzus persicae = Myzus persicae test MYZUPE (bell pepper plants); assay type: in vivo, green peach aphid (Myzus persicae)
Procedure: (§1) Solvent: 7 parts by weight of dimethylformamide Emulsifier: 2 parts by weight of alkylaryl polyglycol ether To produce a suitable preparation of active compound, 1 part by weight of active compound is mixed with the stated amounts of solvent and emulsifier, and the concentrate is diluted with emulsifier-containing water to the desired concentration. If the addition of ammonium salts, penetrant or ammonium salts and penetrant is required, these are pipetted in at a concentration of 1000 ppm after dilution of the respective finished solution of the preparation. Bell pepper plants (Capsicum annuum) which are heavily infested by the green peach aphid (Myzus persicae) are treated by spraying with the active compound preparation of the desired concentration. After the desired period of time, the kill in % is determined. Here, 100% means that all of the animals have been killed; 0% means that none of the animals have been killed.

Tetranychus urticae [1] = assay: Tetranychus test, OP-resistant (bean plants); assay type: in vivo, greenhouse red spider mite (Tetranychus urticae); conditions: TETRUR, active compound conc. 4 ppm
Procedure: Solvent: 7 parts by weight of dimethylformamide Emulsifier: 2 parts by weight of alkylaryl polyglycol ether To produce a suitable preparation of active compound, 1 part by weight of active compound is mixed with the stated amounts of solvent and emulsifier, and the concentrate is diluted with emulsifier-containing water to the desired concentration. If the addition of ammonium salts, penetrant or ammonium salts and penetrant is required, these are pipetted in at a concentration of 1000 ppm after dilution of the respective finished solution of the preparation. Bean plants (Phaseolus vulgaris) which are heavily infested by all stages of the greenhouse red spider mite (Tetranychus urticae) are treated by spraying with the active compound preparation of the desired concentration. After the desired period of time, the effect in % is determined. Here, 100% means that all of the spider mites have been killed; 0% means that none of the spider mites have been killed.

Aphis gossypii [2] = assay: Aphis gossypii test, APHIGO spray treatment (cotton leaves); assay type: in vivo, cotton aphid (Aphis gossypii); conditions: active compound conc. 0.8 ppm
Procedure: as §1, with “the preparation. Cotton leaves (Gossypium hirsutum) which are” for “the preparation. Bell pepper plants (Capsicum annuum) which are”, “by the cotton aphid (Aphis” for “by the green peach aphid (Myzus”, “cotton aphid (Aphis gossypii) are sprayed” for “peach aphid (Myzus persicae) are treated”, “gossypii) are sprayed with an” for “persicae) are treated by spraying with the”, “sprayed with an active compound” for “spraying with the active compound”, “of the aphids have been” for “of the animals have been”

[3] = Penetration of active compounds through enzymatically isolated cuticles of apple leaves; assay type: in vitro ADME, apple trees of the Golden Delicious variety; conditions: apple leaf cuticles, 20° C., 60% rh, average of 8 to 10 measurements
Text: Boosting of penetration into the plant by ammonium salts or phosphonium salts, and synergistic boosting of penetration into the plant by ammonium/phosphonium salts in combination with penetration promoters This test measured the penetration of active compounds through enzymatically isolated cuticles of apple leaves. The leaves used were cut in the fully developed state from apple trees of the Golden Delicious variety. The cuticles were isolated as follows: • first of all, leaf discs labelled on the underside with dye and formed by punching were filled by means of vacuum infiltration with a pectinase solution (0.2% to 2% strength) buffered to a pH of between 3 and 4, • sodium azide was then added and • the leaf discs thus treated were left to stand until the original leaf structure broke down and the non-cellular cuticle underwent detachment. After that, only those cuticles from the top leaf sides that were free from stomata and hairs were used further. They were washed a number of times in alternation with water and with a buffer solution, pH 7. […] Penetration was determined by applying 10 μl of the spray liquor of the composition below to the outer side of each of the cuticles. […] At regular intervals, samples were taken using an autosampler, and the amount of active compound was determined using HPLC. […]

Aphis gossypii [4] = assay: Example C-2: plot trial on cotton 'Fibermax' against Aphis gossypii; assay type: in vivo; conditions: 105 g a.i./ha, standard (SC 050)
Procedure: In plots of a size of 10 m^2, cotton plants of the cultivar “Fibermax” are treated in three replications against Aphis gossypii using a pressure-operated knapsack sprayer (2.5 bar). Here, the active compound A.5 is applied as SC050 and SL050 at the stated application rate in a tank mix of 1 g/l of ammonium sulphate and 1 g/l of a.i. rapeseed oil methyl ester EW 500 in comparison to the standard imidacloprid (SC 050) using an application rate of 300 l of water/ha. Evaluation is carried out 3, 6, 9, 13 and 17 days after the application by counting the number of live animals on the leaves. Subsequently, the efficacy in percent is calculated according to Henderson and Tilton.

Tetranychus urticae [5] = assay: Example C-3: plot trial on cotton 'Fibermax 977' against Tetranychus urticae; assay type: in vivo; conditions: 9 g a.i./ha, standard (EC 018), two applications 8 days apart
Procedure: In plots of a size of 15 m^2, cotton plants of the cultivar “Fibermax 977” are treated in three replications against Tetranychus urticae using a pressure-operated knapsack sprayer (4 bar). Here, the active compound A.5 is applied as SC050 and SL050 at the stated application rate in a tank mix of 1 g/l of ammonium sulphate and 1 g/l of a.i. rapeseed oil methyl ester EW 500 and the standard abamectin (EC 018) using an application rate of in each case 300 l of water/ha. Two applications are carried out at an interval of 8 days. Evaluation is carried out 3, 7, 11 and 15 days after the first application by scoring the kill of the spider mites on the leaves.

Compound: Cc1cc(C)c(C2=C(O)C3(CCC4(CC3)OCCO4)NC2=O)c(C)c1 [A.2]
- % effect after 7 d (Myzus persicae; active compound conc. 0.8 ppm): 90%
- % effect after 7 d (Tetranychus urticae [1]): 70%

Compound: Cc1cc(C)c(C2=C(O)C3(CCC4(CC3)OCCO4)NC2=O)c(C)c1 [A.3]
- % effect after 7 d (Myzus persicae; active compound conc. 0.8 ppm): 75%
- % effect after 7 d (Aphis gossypii [2]): 75%

Compound: Cc1cc(Cl)cc(C)c1C1=C(O)C2(CCC3(CC2)OCCO3)NC1=O [A.4]
- % effect after 7 d (Myzus persicae; active compound conc. 10 ppm): 100%

Compound: Cc1cc(Cl)cc(C)c1C1=C(O)C2(CCC3(CC2)OCCO3)NC1=O [A.6]
- % effect after 7 d (Myzus persicae; active compound conc. 10 ppm): 95%

Compound: Cc1cc(Cl)cc(C)c1C1C(=O)NC2(CCC3(CC2)OCCO3)C1=O (stereo not shown) [Ex. I-1-a-4, 8,8′-ethylenedioxy-3-[(2,6-dimethyl-4-chloro)-phenyl]-1-azaspiro[4,5]-decane-2,4-dione]
- % effect after 7 d (Myzus persicae; active compound conc. 10 ppm): 75%

Compound: Cc1cc(C)c(C2=C(O)C3(CCC4(CC3)OCCO4)NC2=O)c(C)c1.[K+] [Example A.1]
- % effect after 7 d (Myzus persicae; active compound conc. 0.8 ppm): 75%

- Penetration after 24 h ([3]; SC 050 + RME (1 g/l) + AS (1 g/l)): 3%
- Penetration after 24 h ([3]; SL 050 + RME (1 g/l) + AS (1 g/l)): 7%
Compound: Cc1cc(Cl)cc(C)c1C1=C(O)C2(CCC3(CC2)OCCO3)NC1=O [Example A.5]

Compound: O=[N+]([O-])NC1=NCCN1Cc1ccc(Cl)nc1 [imidacloprid]
- Efficacy (% H + T) Aphis gossypii 3 d (Aphis gossypii [4]; 3 d): 78.1%
- Efficacy (% H + T) Aphis gossypii 6 d (Aphis gossypii [4]; 6 d): 84.1%
- Efficacy (% H + T) Aphis gossypii 9 d (Aphis gossypii [4]; 9 d): 83.7%
- Efficacy (% H + T) Aphis gossypii 13 d (Aphis gossypii [4]; 13 d): 82.0%
- Efficacy (% H + T) Aphis gossypii 17 d (Aphis gossypii [4]; 17 d): 64.7%

Compound: abamectin
- Effect Abbott (%) Tetranychus urticae 3 d (Tetranychus urticae [5]; 3 d after first application): 49.3%
- Effect Abbott (%) Tetranychus urticae 7 d (Tetranychus urticae [5]; 7 d after first application): 27.2%
- Effect Abbott (%) Tetranychus urticae 11 d (Tetranychus urticae [5]; 11 d after first application): 5.8%
- Effect Abbott (%) Tetranychus urticae 15 d (Tetranychus urticae [5]; 15 d after first application): 40.7%
